According to patent publication US9877980B2, “Method and composition for treatment or prevention of type 2 diabetes and hyperlipidemia” (Chun-Ching Shih, priority 2016, dated 2018):
Marks after values point to notes of the source that are not given here.

What was measured:
Type in all cases: in vivo
[1] = test system: hepatocytes of HFD mice; test: Histology of liver tissue (hepatocellular ballooning); conditions: 4 weeks, grade 0 absence, 1 a few cells
Procedure: (§1) The following experiment was performed and approved by the guidelines of the Institutional Animal Care and Use Committee of Central Taiwan University of Science and Technology. The 4-week old male C57BL/6J mice (total amount n=63) were purchased from the National Laboratory Animal Breeding and Research Center (Taipei, Taiwan). After acclimatization for one week, all of the mice were divided randomly into the control (CON) group and the high-fat diet (HFD) group. For the following 12 weeks, the CON group (n=9) was kept on a low-fat diet (Diet 12450B, Research Diets, Inc., New Brunswick, N.J., USA), while the HFD group (n=54) was exposed to a high-fat diet (Diet 12451, Research Diets, New Brunswick, N.J., USA). The low-fat diet was composed of protein 20%, carbohydrate 70% and fat 10%, whereas the high-fat diet was composed of protein 20%, carbohydrate 35%, and fat 45% (of total energy, % kcal). After HFD exposure for 8 weeks, the HFD group was further randomly subdivided into 6 groups (n=9 per group) to receive different treatments by oral gavage once daily for four weeks and on HFD. […] The HF+B1, HF+B2, and […] are collectively termed BB-treated HFD groups in the following examples. The CON mice were administered vehicle. After dosing for 4 weeks, the mice were given no food at night and sacrificed after 12 h of fasting on the next day. All of the individual tissues were collected and weighed, and portions were instantly frozen using liquid nitrogen and kept at −80° C. for subsequent target gene analysis. Blood samples (0.8 mL) were collected for analysis of blood parameters.
(§2) Small pieces of epididymal white adipose tissue and liver tissue were fixed with formalin (200 g/kg) neutral buffered solution and embedded in paraffin. Sections of 8 μm […] were cut and stained with hematoxylin and eosin. For microscopic examination, a microscope (Leica, DM2500) was used, and the images were taken using a Leica Digital Camera (DFC-425-C).
Based on previous report, the designation of histological hepatocellular ballooning findings include grade 0 for absence of degeneration, grade 1 for degeneration in a few cells, and […] for degeneration in many cells.

[2] = test system: C57BL/6J mice on high-fat diet (HFD); test: Absolute tissue weight, body weight, weight gain and food intake in HFD mice; conditions: 4 weeks
Procedure: as §1
Body weight of each mouse was monitored and measured daily at the same time throughout the experimentation. The difference in body weight between two consecutive days is defined as body weight gain. The food pellets for mice were weighed and put into the food container. Unconsumed pellets of high-fat diet were discarded each day and fresh pellets of high-fat diet were provided to ensure food quality throughout the experimentation. The high-fat food pellets were stored at 4° C.

[3] = test system: epididymal adipocyte of HFD mice; test: Histology of epididymal white adipose tissue (adipocyte hypertrophy); conditions: 4 weeks, three measurements
Procedure: as §1, §2
Adipocyte hypertrophy, the pathological enlargement of adipocytes, is often found in subjects with type 2 diabetes and hyperlipidemia. To verify the therapeutic effect of the compound of formula I on adipocyte hypertrophy, morphology of the EWAT for the CON group and the BB-treated HFD groups was examined. Micrographs of the EWAT sections for each group were analyzed to determine the mean area of an epididymal adipocyte using the software ImageJ.

[4] = test system: C57BL/6J mice on high-fat diet (HFD); test: Blood parameters (glucose, insulin, TG, FFA, TC, leptin, adiponectin) in HFD mice; conditions: 4 weeks
Procedure: as §1, with “For the following 12 weeks, the CON group (n=9) was kept on a low-fat diet (Diet 12450B, Research Diets, Inc., New Brunswick, N.J., USA), while the HFD group (n=54) was exposed to a high-fat diet (Diet 12451, Research Diets, New Brunswick, N.J., USA). The low-fat diet was composed of protein 20%, carbohydrate 70% and fat 10%, whereas the high-fat diet was composed of protein 20%, carbohydrate 35%, and fat 45% (of total energy, % kcal).” left out
A portion of the blood samples obtained from the retro-orbital sinus of fasted mice were immediately used to measure blood glucose levels using Sidekick glucose analyzer (YSI 1500, YSI Incorporated, Yellow Springs, USA) according to the glucose oxidase method. Heparin (30 units/mL, Sigma) was added into other portions of the blood samples. […] Concentrations of plasma triglycerides (TG), total cholesterol (TC), and free fatty acids (FFA) were determined using commercial assay kits according to the manufacturer's instructions (Triglycerides-E test, Cholesterol-E test, and FFA-C test, Wako Pure Chemical, Osaka, Japan). Plasma insulin, leptin, and adiponectin levels were assessed using commercial assay kits according to the manufacturer's instructions (mouse insulin ELISA kit, Mercodia, Uppsala, Sweden; mouse leptin ELISA kit, Morinaga, Yokohama, Japan; Mouse Adiponectin ELISA kit, Crystal Chem International, Downers Grove, Ill., USA).

[5] = test system: C57BL/6J mice on high-fat diet (HFD); test: Hepatic lipids in HFD mice; conditions: 4 weeks
Procedure: as §1
For hepatic lipid extraction, a 0.375 g liver samples were homogenized with 1 mL distill water for 5 minutes. The dried pellet was finally resuspended in 0.5 mL ethanol and analyzed using a triglycerides kit as used for analyzing the serum lipids set forth above.

SMILES: CN(CCOc1ccc(CC2SC(=O)NC2=O)cc1)c1ccccn1 (centres unmarked) [Rosi, rosiglitazone, reference compound]
- hepatocellular ballooning mean score ([1]; 10 mg/kg/day oral gavage): 0.8±0.2
- Absolute tissue weight BAT ([2]; 10 mg/kg/day oral gavage): 0.206 ± 0.012 g
- Absolute tissue weight EWAT ([2]; 10 mg/kg/day oral gavage): 0.919 ± 0.097^d g
- Absolute tissue weight Liver ([2]; 10 mg/kg/day oral gavage): 0.886 ± 0.031 g
- Absolute tissue weight MWAT ([2]; 10 mg/kg/day oral gavage): 0.302 ± 0.029 g
- Absolute tissue weight RWAT ([2]; 10 mg/kg/day oral gavage): 0.224 ± 0.032^f g
- Absolute tissue weight Skeletal muscle ([2]; 10 mg/kg/day oral gavage): 0.960 ± 0.078 g
- Absolute tissue weight Visceral fat ([2]; 10 mg/kg/day oral gavage): 1.143 ± 0.124^e g
- Body weight ([2]; 10 mg/kg/day oral gavage): 28.61 ± 1.51 g
- Food intake ([2]; 10 mg/kg/day oral gavage): 2.11 ± 0.06 g/day/mouse
- Weight gain ([2]; 10 mg/kg/day oral gavage): 0.38 ± 0.32 g
- mean area of an epididymal adipocyte ([3]; 10 mg/kg/day oral gavage): 5886.4 ± 58.7 μm^2
- Blood parameters Adiponectin ([4]; 10 mg/kg/day oral gavage): 3.058 ± 0.040^f μg/mL
- Blood parameters FFA ([4]; 10 mg/kg/day oral gavage): 1.08 ± 0.11^e mEq/L
- Blood parameters Leptin ([4]; 10 mg/kg/day oral gavage): 1.661 ± 0.013^f ng/mL
- Blood parameters TC ([4]; 10 mg/kg/day oral gavage): 111.5 ± 2.3^f mg/dL
- Liver lipids Total lipid ([5]; 10 mg/kg/day oral gavage): 70.1 ± 8.2^d mg/g
- Liver lipids Triacylglycerol ([5]; 10 mg/kg/day oral gavage): 52.1 ± 7.7^d μmol/g

SMILES: CC(C)OC(=O)C(C)(C)Oc1ccc(C(=O)c2ccc(Cl)cc2)cc1 [Feno, fenofibrate, reference compound]
- hepatocellular ballooning mean score ([1]; 250 mg/kg/day oral gavage): 0.6±0.1
- Absolute tissue weight BAT ([2]; 250 mg/kg/day oral gavage): 0.139 ± 0.011 g
- Absolute tissue weight EWAT ([2]; 250 mg/kg/day oral gavage): 0.763 ± 0.116^f g
- Absolute tissue weight Liver ([2]; 250 mg/kg/day oral gavage): 1.669 ± 0.033^f g
- Absolute tissue weight MWAT ([2]; 250 mg/kg/day oral gavage): 0.264 ± 0.056 g
- Absolute tissue weight RWAT ([2]; 250 mg/kg/day oral gavage): 0.173 ± 0.032^f g
- Absolute tissue weight Skeletal muscle ([2]; 250 mg/kg/day oral gavage): 0.990 ± 0.078 g
- Absolute tissue weight Visceral fat ([2]; 250 mg/kg/day oral gavage): 0.936 ± 0.147^f g
- Body weight ([2]; 250 mg/kg/day oral gavage): 26.92 ± 0.96 g
- Weight gain ([2]; 250 mg/kg/day oral gavage): −0.58 ± 0.48^d g
- mean area of an epididymal adipocyte ([3]; 250 mg/kg/day oral gavage): 6982.3±309.7 μm^2
- Blood parameters Adiponectin ([4]; 250 mg/kg/day oral gavage): 3.101 ± 0.028^f μg/mL
- Blood parameters FFA ([4]; 250 mg/kg/day oral gavage): 0.91 ± 0.08^f mEq/L
- Blood parameters Leptin ([4]; 250 mg/kg/day oral gavage): 1.206 ± 0.015^f ng/mL
- Blood parameters TC ([4]; 250 mg/kg/day oral gavage): 104.5 ± 5.5^f mg/dL
- Liver lipids Total lipid ([5]; 250 mg/kg/day oral gavage): 62.4 ± 3.9^f mg/g
- Liver lipids Triacylglycerol ([5]; 250 mg/kg/day oral gavage): 43.8 ± 5.6^f μmol/g
